From ChEMBL document CHEMBL1128380, “Antimalarial activity of novel ring-contracted artemisinin derivatives” (1995)

Key:
Format in all cases: functional
[1] = test system: Mus musculus; assay: Antimalarial activity was determined by Blood schizonticidal activity in mice (Mus musculus) infected with Plasmodium berghei K173 at 5 (mg/kg x5) subcutaneous dosage; Cured/treated = 0/6 on day 7
[2] = test system: Mus musculus; assay: Antimalarial activity was determined by Blood schizonticidal activity in mice (Mus musculus) infected with Plasmodium berghei K173 at 20 (mg/kg x5) peroral dosage; Cured/treated = 0/6
[3] = test system: Mus musculus; assay: Antimalarial activity was determined by Blood schizonticidal activity in mice (Mus musculus) infected with Plasmodium berghei K173 at 5 (mg/kg x5) subcutaneous dosage; Cured/treated = 2/6 on day 7
[4] = test system: Mus musculus; assay: Antimalarial activity was determined by Blood schizonticidal activity in mice (Mus musculus) infected with Plasmodium berghei K173 at 5 (mg/kg x5) subcutaneous dosage; Cured/treated = 1/6 on day 7
[5] = test system: Mus musculus; assay: Antimalarial activity was determined by blood schizonticidal activity in mice (Mus musculus) infected with Plasmodium berghei K173 at 10 (mg/kgx5) subcutaneous dosage; Cured/treated = 0/6 on day 7
[6] = test system: Mus musculus; assay: Antimalarial activity was determined by Blood schizonticidal activity in mice (Mus musculus) infected with Plasmodium berghei K173 at 5 (mg/kg x5) subcutaneous dosage; Cured/treated = 6/6 on day 7
[7] = test system: Mus musculus; assay: Antimalarial activity was determined by Blood schizonticidal activity in mice (Mus musculus) infected with Plasmodium berghei NS at 5 (mg/kg x5) subcutaneous dosage; Cured/treated = 22/22
[8] = test system: Mus musculus; assay: Antimalarial activity was determined by Blood schizonticidal activity in mice (Mus musculus) infected with Plasmodium berghei K173 at 25 (mg/kgx5) peroral dosage; Cured/treated = 16/16
[9] = test system: Mus musculus; assay: Antimalarial activity was determined by Blood schizonticidal activity in mice (Mus musculus) infected with Plasmodium berghei K173 at 1 (mg/kg x5) subcutaneous dosage; Cured/treated = 10/22 on day 7
[10] = test system: Mus musculus; assay: Antimalarial activity was determined by blood schizonticidal activity in mice (Mus musculus) infected with Plasmodium berghei K173 at 1.25 (mg/kgx5) subcutaneous dosage; Cured/treated = 26/34 on day 7
[11] = test system: Mus musculus; assay: Antimalarial activity was determined by Blood schizonticidal activity in mice (Mus musculus) infected with Plasmodium berghei K173 at 15 (mg/kg x5) peroral dosage; Cured/treated = 19/22 on day 7
[12] = test system: Mus musculus; assay: Antimalarial activity was determined by blood schizonticidal activity in mice (Mus musculus) infected with Plasmodium berghei K173 at 10 (mg/kgx5) peroral dosage; Cured/treated = 34/39 on day 7
[13] = test system: Mus musculus; assay: Antimalarial activity was determined by blood schizonticidal activity in mice (Mus musculus) infected with Plasmodium berghei NS at 2.5 (mg/kgx5) subcutaneous dosage; Cured/treated = 11/12
[14] = test system: Mus musculus; assay: Antimalarial activity was determined by Blood schizonticidal activity in mice (Mus musculus) infected with Plasmodium berghei K173 at 2.5 (mg/kgx5) subcutaneous dosage; Cured/treated = 28/28 on day 7
[15] = test system: Mus musculus; assay: Antimalarial activity was determined by Blood schizonticidal activity in mice (Mus musculus) infected with Plasmodium berghei NS at 25 (mg/kgx5) peroral dosage; Cured/treated = 6/6
[16] = test system: Mus musculus; assay: Antimalarial activity was determined by blood schizonticidal activity in mice (Mus musculus) infected with Plasmodium berghei K173 at 5 (mg/kg x5) subcutaneous dosage; Cured/treated = 6/6
[17] = test system: Mus musculus; assay: Antimalarial activity was determined by Blood schizonticidal activity in mice (Mus musculus) infected with Plasmodium berghei K173 at 2.5 (mg/kgx5) subcutaneous dosage; Cured/treated = 0/6 on day 7
[18] = test system: Mus musculus; assay: Antimalarial activity was determined by Blood schizonticidal activity in mice (Mus musculus) infected with Plasmodium berghei K173 at 25 (mg/kgx5) peroral dosage; Cured/treated = 0/6 on day 7
[19] = test system: Mus musculus; assay: Antimalarial activity was determined by Blood schizonticidal activity in mice (Mus musculus) infected with Plasmodium berghei K173 at 10 (mg/kgx5) subcutaneous dosage; Cured/treated = 6/6
[20] = test system: Mus musculus; assay: Antimalarial activity was determined by Blood schizonticidal activity in mice (Mus musculus) infected with Plasmodium berghei K173 at 5 (mg/kg x5) subcutaneous dosage; Cured/treated = 5/5
[21] = test system: Mus musculus; assay: Antimalarial activity was determined by blood schizonticidal activity in mice (Mus musculus) infected with Plasmodium berghei K173 at 2.5 (mg/kgx5) subcutaneous dosage; Cured/treated = 0/4 on day 7
[22] = test system: Mus musculus; assay: Antimalarial activity was determined by Blood schizonticidal activity in mice (Mus musculus) infected with Plasmodium berghei K173 at 10 (mg/kgx5) subcutaneous dosage; Cured/treated = 0/5 on day 7
[23] = test system: Mus musculus; assay: Antimalarial activity was determined by Blood schizonticidal activity in mice (Mus musculus) infected with Plasmodium berghei K173 at 5 (mg/kg x5) subcutaneous dosage; Cured/treated = 0/5 on day 7
[24] = test system: Mus musculus; assay: Antimalarial activity was determined by blood schizonticidal activity in mice (Mus musculus) infected with Plasmodium berghei K173 at 25 (mg/kgx5) peroral dosage; Cured/treated = 0/6
[25] = test system: Mus musculus; assay: Antimalarial activity was determined by Blood schizonticidal activity in mice (Mus musculus) infected with Plasmodium berghei K173 at 5 (mg/kg x5) subcutaneous dosage; Cured/treated = 5/6 on day 7
[26] = test system: Mus musculus; assay: Antimalarial activity was determined by Blood schizonticidal activity in mice (Mus musculus) infected with Plasmodium berghei K173 at 10 (mg/kgx5) subcutaneous dosage; Cured/treated = 0/4 on day 7

Which Cured/treated [1] does the source give for CCN(CC)CCOC[C@@]1(C)O[C@@H]2O[C@]3(C)CCC4[C@H](C)CC[C@@H]1[C@]42OO3 (some centres not stated) here?
The Cured/treated was 0.

And the Cured/treated [2]?
Its Cured/treated is 0.

For C[C@@H]1CC[C@@H]2[C@]34OO[C@@](C)(CCC13)O[C@H]4O[C@]2(C)C(=O)Sc1ccccc1 (some centres not stated), which Cured/treated [3] is on record?
The Cured/treated was 2.

With C[C@@H]1CC[C@@H]2[C@]34OO[C@@](C)(CCC13)O[C@H]4O[C@]2(C)CC(=O)ONc1ccc(Cl)cc1 (some centres not stated) as the molecule, how does the Cured/treated [4] read?
The Cured/treated was 1.

What about the Cured/treated [2] of the same molecule?
Its Cured/treated is 0.

How did the Cured/treated [5] turn out when C[C@@H]1CC[C@@H]2[C@]34OO[C@@](C)(CCC13)O[C@H]4O[C@]2(C)COC(=O)C(=O)O (some centres not stated) was run?
The Cured/treated was 0.

How did the Cured/treated [5] turn out when C[C@@H]1CC[C@@H]2[C@]34OO[C@@](C)(CCC13)O[C@H]4O[C@]2(C)C(=O)N1CCN(C)CC1 (some centres not stated) was run?
Its Cured/treated is 0.

For C[C@@H]1CC[C@@H]2[C@]34OO[C@@](C)(CCC13)O[C@H]4O[C@]2(C)CO/C(S)=N/c1ccccc1 (some centres not stated), which Cured/treated [6] is on record?
Its Cured/treated is 6.

For C=CC/N=C(\S)OC[C@@]1(C)O[C@@H]2O[C@]3(C)CCC4[C@H](C)CC[C@@H]1[C@]42OO3 (some centres not stated), which Cured/treated [5] is on record?
Its Cured/treated is 0.

How did the Cured/treated [7] turn out when C[C@@H]1CC[C@@H]2[C@]34OO[C@@](C)(CCC13)O[C@H]4O[C@]2(C)CO/C(S)=N/c1ccc(Cl)cc1 (some centres not stated) was run?
The Cured/treated was 22.

And the Cured/treated [8]?
Its Cured/treated is 16.

What about the Cured/treated [9] of the same molecule?
The Cured/treated was 10.

What about the Cured/treated [10] of the same molecule?
The Cured/treated was 26.

And the Cured/treated [11]?
The Cured/treated was 19.

What about the Cured/treated [12] of the same molecule?
Its Cured/treated is 34.

And the Cured/treated [13]?
The Cured/treated was 11.

And the Cured/treated [14]?
The Cured/treated was 28.

And the Cured/treated [15]?
The Cured/treated was 6.

How did the Cured/treated [16] turn out when C[C@@H]1CC[C@@H]2[C@]34OO[C@@](C)(CCC13)O[C@H]4O[C@]2(C)CO/C(S)=N\c1ccc(F)cc1 (some centres not stated) was run?
Its Cured/treated is 6.

What about the Cured/treated [17] of the same molecule?
The Cured/treated was 0.

And the Cured/treated [18]?
The Cured/treated was 0.

Which Cured/treated [5] does the source give for CCOC(=O)c1cc(Cl)ccc1/N=C(/S)OC[C@@]1(C)O[C@@H]2O[C@]3(C)CCC4[C@H](C)CC[C@@H]1[C@]42OO3 (some centres not stated) here?
Its Cured/treated is 0.

With C[C@@H]1CCC2[C@]34OOC(C)(CCC13)O[C@H]4O[C@]2(C)CO (single isomer, unassigned) as the molecule, how does the Cured/treated [5] read?
The Cured/treated was 0.

With C[C@@H]1CCC2[C@]34OOC(C)(CCC13)O[C@H]4O[C@]2(C)C(=O)O (single isomer, unassigned) as the molecule, how does the Cured/treated [5] read?
Its Cured/treated is 0.

Which Cured/treated [19] does the source give for C#CCOC[C@@]1(C)O[C@@H]2OC3(C)CCC4[C@H](C)CC[C@@H]1[C@]42OO3 (single isomer, unassigned) here?
The Cured/treated was 6.

And the Cured/treated [1]?
Its Cured/treated is 0.

For C[C@@H]1CC[C@@H]2[C@]34OOC(C)(CCC13)O[C@H]4O[C@]2(C)COC/C=C/c1ccccc1 (single isomer, unassigned), which Cured/treated [1] is on record?
Its Cured/treated is 0.

How did the Cured/treated [1] turn out when C[C@@H]1CC[C@@H]2[C@]34OOC(C)(CCC13)O[C@H]4O[C@]2(C)C(=O)OCCBr (single isomer, unassigned) was run?
Its Cured/treated is 0.

For C=CCOC(=O)[C@@]1(C)O[C@@H]2OC3(C)CCC4[C@H](C)CC[C@@H]1[C@]42OO3 (single isomer, unassigned), which Cured/treated [5] is on record?
The Cured/treated was 0.

For C[C@@H]1CC[C@@H]2[C@]34OOC(C)(CCC13)O[C@H]4O[C@]2(C)/C=C/c1ccc(C(F)(F)F)cc1 (single isomer, unassigned), which Cured/treated [20] is on record?
Its Cured/treated is 5.

And the Cured/treated [21]?
The Cured/treated was 0.

Which Cured/treated [22] does the source give for CCOC(=O)C(=C[C@@]1(C)O[C@@H]2OC3(C)CCC4[C@H](C)CC[C@@H]1[C@]42OO3)C(=O)OCC (single isomer, unassigned) here?
The Cured/treated was 0.

With CCOC(=O)/C=C\[C@@]1(C)O[C@@H]2OC3(C)CCC4[C@H](C)CC[C@@H]1[C@]42OO3 (single isomer, unassigned) as the molecule, how does the Cured/treated [23] read?
Its Cured/treated is 0.

Which Cured/treated [24] does the source give for C[C@@H]1CC[C@@H]2[C@]34OOC(C)(CCC13)O[C@H]4O[C@]2(C)C(=O)OCCCl (single isomer, unassigned) here?
The Cured/treated was 0.

What about the Cured/treated [1] of the same molecule?
The Cured/treated was 0.

Which Cured/treated [5] does the source give for C[C@@H]1CC[C@@H]2[C@]34OOC(C)(CCC13)O[C@H]4O[C@]2(C)COS(=O)(=O)c1ccccc1 (single isomer, unassigned) here?
Its Cured/treated is 0.

Which Cured/treated [25] does the source give for Cc1ccc(S(=O)(=O)OC[C@@]2(C)O[C@@H]3OC4(C)CCC5[C@H](C)CC[C@@H]2[C@]53OO4)cc1 (single isomer, unassigned) here?
The Cured/treated was 5.

How did the Cured/treated [22] turn out when C[C@@H]1CC[C@@H]2[C@]34OOC(C)(CCC13)O[C@H]4O[C@]2(C)COC=O (single isomer, unassigned) was run?
Its Cured/treated is 0.

With C[C@@H]1CC[C@@H]2[C@]34OOC(C)(CCC13)O[C@H]4O[C@]2(C)CC(=O)Oc1ccc([N+](=O)[O-])cc1 (single isomer, unassigned) as the molecule, how does the Cured/treated [4] read?
The Cured/treated was 1.

With C[C@@H]1CC[C@@H]2[C@]34OOC(C)(CCC13)O[C@H]4O[C@]2(C)COC(=O)CCCCl (single isomer, unassigned) as the molecule, how does the Cured/treated [1] read?
The Cured/treated was 0.

For C[C@@H]1CC[C@@H]2[C@]34OOC(C)(CCC13)O[C@H]4O[C@]2(C)COS(C)(=O)=O (single isomer, unassigned), which Cured/treated [1] is on record?
Its Cured/treated is 0.

For C[C@@H]1CC[C@@H]2[C@]34OOC(C)(CCC13)O[C@H]4O[C@]2(C)COC(=O)CCl (single isomer, unassigned), which Cured/treated [1] is on record?
Its Cured/treated is 0.

With CCOC(=O)[C@@]1(C)O[C@@H]2OC3(C)CCC4[C@H](C)CC[C@@H]1[C@]42OO3 (single isomer, unassigned) as the molecule, how does the Cured/treated [26] read?
Its Cured/treated is 0.

With C[C@@H]1CC[C@@H]2[C@]34OOC(C)(CCC13)O[C@H]4O[C@]2(C)C(=O)OCCCCCCCCCl (single isomer, unassigned) as the molecule, how does the Cured/treated [26] read?
The Cured/treated was 0.

Which Cured/treated [1] does the source give for C[C@@H]1CC[C@@H]2[C@]34OOC(C)(CCC13)O[C@H]4O[C@]2(C)C(=O)OCCCCl (single isomer, unassigned) here?
The Cured/treated was 0.

For C[C@@H]1CC[C@@H]2[C@]34OOC(C)(CCC13)O[C@H]4O[C@]2(C)C(=O)N1CCOCC1 (single isomer, unassigned), which Cured/treated [5] is on record?
The Cured/treated was 0.

C[C@@H]1CC[C@@H]2[C@]34OOC(C)(CCC13)O[C@H]4O[C@]2(C)COC(=S)N1CCN(c2cccc(C(F)(F)F)c2)CC1 (single isomer, unassigned) was tested. Which Cured/treated [1] did it give?
Its Cured/treated is 0.
